Test results from patent US20090311217A1, “3-SUBSTITUTED-1H-INDOLE COMPOUNDS, THEIR USE AS MTOR KINASE AND PI3 KINASE INHIBITORS, AND THEIR SYNTHESES” (priority 2008, published 2009).

Assays:
Type in all cases: biochemical
human TOR = biological target: T1, human TOR (Homo sapiens, UniProt P42345); assay: mTOR enzyme assay (DELFIA, His6-S6K substrate); settings: read-out: mTOR Kinase Avg. IC50
T1 construct: FLAG

PI3K-gamma = PI3K-gamma (Homo sapiens, UniProt P48736); assay: PI3K-gamma fluorescence polarization assay; settings: PI3Kγ Avg. IC50
Summary of the method: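 Reactions in 5 mM HEPES pH 7, 2.5 mM MgCl2, 25 μM ATP with 2.5 μM diC8-PI(4,5)P2 and 5 ng enzyme, 1 h at 25° C, then EDTA quench. Product detected by FP using GST-GRP1 PH domain (100 nM) and BODIPY-TMR-IP4 tracer (5 nM); final DMSO 0.8%.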

PI3K-alpha = PI3K-alpha (Homo sapiens, UniProt P42336); assay: PI3K-alpha fluorescence polarization assay; settings: read-out: PI3Kα Avg. IC50
Chain of PI3K-alpha (P42336 whole entry, species assumed): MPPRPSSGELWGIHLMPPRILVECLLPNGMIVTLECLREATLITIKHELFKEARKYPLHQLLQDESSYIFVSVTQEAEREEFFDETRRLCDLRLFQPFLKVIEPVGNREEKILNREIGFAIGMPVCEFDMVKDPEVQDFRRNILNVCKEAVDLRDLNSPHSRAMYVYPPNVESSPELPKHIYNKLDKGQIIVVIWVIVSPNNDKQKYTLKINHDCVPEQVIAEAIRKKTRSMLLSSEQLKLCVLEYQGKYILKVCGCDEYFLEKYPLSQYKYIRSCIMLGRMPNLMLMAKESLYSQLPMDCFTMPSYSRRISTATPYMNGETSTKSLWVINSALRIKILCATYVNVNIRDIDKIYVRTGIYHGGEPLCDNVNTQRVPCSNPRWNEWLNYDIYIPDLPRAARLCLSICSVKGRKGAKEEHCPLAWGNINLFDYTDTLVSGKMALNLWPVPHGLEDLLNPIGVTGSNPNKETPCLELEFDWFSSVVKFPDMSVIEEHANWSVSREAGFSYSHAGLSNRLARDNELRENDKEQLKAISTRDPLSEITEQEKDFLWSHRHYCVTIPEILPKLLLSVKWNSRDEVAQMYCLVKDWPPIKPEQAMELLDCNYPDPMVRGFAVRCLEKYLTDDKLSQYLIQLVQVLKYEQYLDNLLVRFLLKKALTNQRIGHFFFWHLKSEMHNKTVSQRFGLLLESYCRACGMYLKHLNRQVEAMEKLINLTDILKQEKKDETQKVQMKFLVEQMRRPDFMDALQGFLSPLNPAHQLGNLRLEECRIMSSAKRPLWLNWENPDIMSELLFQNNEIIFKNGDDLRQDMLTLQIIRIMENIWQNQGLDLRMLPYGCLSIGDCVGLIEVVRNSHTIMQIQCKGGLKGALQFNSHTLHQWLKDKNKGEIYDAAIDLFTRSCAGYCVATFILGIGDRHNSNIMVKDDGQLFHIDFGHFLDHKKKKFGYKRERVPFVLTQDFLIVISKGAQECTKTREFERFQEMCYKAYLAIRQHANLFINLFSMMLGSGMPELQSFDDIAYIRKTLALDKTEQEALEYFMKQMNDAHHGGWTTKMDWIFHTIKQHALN
Chain of PI3K-alpha (P27986 whole entry partner, species assumed): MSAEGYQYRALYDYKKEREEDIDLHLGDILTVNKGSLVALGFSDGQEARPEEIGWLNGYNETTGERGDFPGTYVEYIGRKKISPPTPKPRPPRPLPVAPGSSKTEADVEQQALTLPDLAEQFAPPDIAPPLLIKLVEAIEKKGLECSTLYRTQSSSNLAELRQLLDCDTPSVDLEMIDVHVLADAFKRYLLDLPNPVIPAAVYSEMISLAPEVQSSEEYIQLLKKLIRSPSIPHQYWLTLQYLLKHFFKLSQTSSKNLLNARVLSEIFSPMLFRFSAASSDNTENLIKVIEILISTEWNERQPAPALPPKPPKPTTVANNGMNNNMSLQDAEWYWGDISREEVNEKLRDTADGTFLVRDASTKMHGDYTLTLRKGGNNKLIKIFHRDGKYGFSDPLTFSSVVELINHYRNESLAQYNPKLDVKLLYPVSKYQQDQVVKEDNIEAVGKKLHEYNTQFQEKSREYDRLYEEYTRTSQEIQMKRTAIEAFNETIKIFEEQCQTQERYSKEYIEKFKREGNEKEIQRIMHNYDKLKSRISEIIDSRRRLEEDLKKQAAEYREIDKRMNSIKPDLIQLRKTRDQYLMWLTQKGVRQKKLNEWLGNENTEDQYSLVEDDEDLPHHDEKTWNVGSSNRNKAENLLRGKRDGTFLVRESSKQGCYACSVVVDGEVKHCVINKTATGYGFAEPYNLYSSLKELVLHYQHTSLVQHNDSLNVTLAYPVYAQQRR

Chain of PI3K-gamma (P48736 whole entry, species assumed, the tested form may be a part): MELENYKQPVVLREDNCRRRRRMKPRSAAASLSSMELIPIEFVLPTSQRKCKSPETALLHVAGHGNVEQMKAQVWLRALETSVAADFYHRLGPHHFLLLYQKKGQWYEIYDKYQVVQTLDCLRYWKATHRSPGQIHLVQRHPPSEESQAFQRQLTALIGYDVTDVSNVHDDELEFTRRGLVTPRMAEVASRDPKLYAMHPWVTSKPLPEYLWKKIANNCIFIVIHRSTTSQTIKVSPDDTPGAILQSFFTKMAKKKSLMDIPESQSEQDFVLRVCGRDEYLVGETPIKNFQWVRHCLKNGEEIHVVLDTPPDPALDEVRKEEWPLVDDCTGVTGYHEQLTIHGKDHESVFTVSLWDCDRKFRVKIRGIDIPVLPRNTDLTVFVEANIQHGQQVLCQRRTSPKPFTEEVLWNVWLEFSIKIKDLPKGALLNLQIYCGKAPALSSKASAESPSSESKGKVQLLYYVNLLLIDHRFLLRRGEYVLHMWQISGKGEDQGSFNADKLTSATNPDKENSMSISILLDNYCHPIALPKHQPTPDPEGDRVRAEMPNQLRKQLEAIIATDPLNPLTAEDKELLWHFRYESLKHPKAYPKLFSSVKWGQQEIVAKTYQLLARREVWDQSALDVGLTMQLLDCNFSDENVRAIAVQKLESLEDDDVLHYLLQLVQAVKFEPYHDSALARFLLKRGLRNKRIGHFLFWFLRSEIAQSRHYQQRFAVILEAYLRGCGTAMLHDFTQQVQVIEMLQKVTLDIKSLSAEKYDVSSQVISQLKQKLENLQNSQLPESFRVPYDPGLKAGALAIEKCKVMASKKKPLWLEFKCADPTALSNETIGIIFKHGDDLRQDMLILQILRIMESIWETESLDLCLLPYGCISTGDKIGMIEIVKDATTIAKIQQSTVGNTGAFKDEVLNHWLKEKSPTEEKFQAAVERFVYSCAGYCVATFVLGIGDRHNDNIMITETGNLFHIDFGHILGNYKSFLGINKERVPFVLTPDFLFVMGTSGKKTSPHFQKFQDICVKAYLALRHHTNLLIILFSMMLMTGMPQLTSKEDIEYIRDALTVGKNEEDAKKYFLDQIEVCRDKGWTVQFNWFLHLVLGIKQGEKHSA

Row | Compound | IC50 (human TOR) [nM] | IC50 (PI3K-gamma) [nM] | IC50 (PI3K-alpha) [nM]
1 | COC(=O)Nc1ccc2c(c1)OC(=Cc1cn(CCCN(C)C)c3ccc(OC)cc13)C2=O [Example 405, Methyl [2-({1-[3-(dimethylamino)propyl]-5-methoxy-1H-indol-3-yl}methylene)-3-oxo-2,3-dihydro-1-benzofuran-6-yl]carbamate] | > 20000 | > 10000 | > 10000
2 | COc1ccc2c(c1)c(/C=C1\Oc3cc(NC(C)=O)ccc3C1=O)cn2CCCN(C)C [Example 407, N-(2Z)-[2-({1-[3-(Dimethylamino)propyl]-5-methoxy-1H-indol-3-yl}methylene)-3-oxo-2,3-dihydro-1-benzofuran-6-yl]acetamide] | > 20000 | > 10000 | > 10000
3 | COc1ccc2c(c1)c(/C=C1\Oc3cc(O)cc(O)c3C1=O)c(C1CCCC1)n2CCN1CCN(C)CC1 [Example 410, (2Z)-2-({2-cyclopentyl-5-methoxy-1-[2-(4-methylpiperazin-1-yl)ethyl]-1H-indol-3-yl}methylene)-4,6-dihydroxy-1-benzofuran-3(2H)-one] | 0.64 | 116 | 3
4 | COc1ccc2c(c1)c(/C=C1\Oc3cc(O)ccc3C1=O)c(C1CCCC1)n2CCN1CCN(C)CC1 [Example 411, (2Z)-2-({2-Cyclopentyl-5-methoxy-1-[2-(4-methylpiperazin-1-yl)ethyl]-1H-indol-3-yl}methylene)-6-hydroxy-1-benzofuran-3(2H)-one] | 47 | 984 | 11.5
5 | COc1ccc2c(c1)c(/C=C1\Oc3cc(O)ccc3C1=O)c(C(=O)N1CCOCC1)n2CCN1CCN(C)CC1 [Example 412, (2Z)-6-Hydroxy-2-({5-methoxy-1-[2-(4-methylpiperazin-1-yl)ethyl]-2-(morpholin-4-ylcarbonyl)-1H-indol-3-yl}methylene)-1-benzofuran-3(2H)-one] | 2800 | 888 | 10.5
6 | COc1ccc2c(c1)c(/C=C1\Oc3cc(Br)ccc3C1=O)cn2CCCN(C)C [Example 413, (2Z)-6-bromo-2-({1-[3-(dimethylamino)propyl]-5-methoxy-1H-indol-3-yl}methylene)-1-benzofuran-3(2H)-one] | > 20000 | 5610 | 7820
7 | COc1ccc2[nH]cc(/C=C3\Oc4cc(O)ccc4C3=O)c2c1 [Example 414, (2Z)-6-Hydroxy-2-[(5-methoxy-1H-indol-3-yl)methylene]-1-benzofuran-3(2H)-one] | 1850 | 281 | 55
8 | COc1ccc2c(c1)c(/C=C1\Oc3cc(NC(=O)OC(C)(C)C)ccc3C1=O)cn2CCCN(C)C [Example 417, tert-butyl (2Z)-[2-({1-[3-(dimethylamino)propyl]-5-methoxy-1H-indol-3-yl}methylene)-3-oxo-2,3-dihydro-1-benzofuran-6-yl]carbamate] | > 20000 | 2100 | 4740
9 | COc1ccc2c(c1)c(/C=C1\Oc3cc(N)ccc3C1=O)cn2CCCN(C)C [Example 418, (2Z)-6-amino-2-({1-[3-(dimethylamino)propyl]-5-methoxy-1H-indol-3-yl}methylene)-1-benzofuran-3(2H)-one] | 10300 | 9500 | 1380
10 | Cn1cc(/C=C2\Oc3cc(O)cc(O)c3C2=O)c2c(-c3ccccc3N)cccc21 [Example 419, (2Z)-2-{[4-(2-Aminophenyl)-1-methyl-1H-indol-3-yl]methylene}-4,6-dihydroxy-1-benzofuran-3(2H)-one] | 24 | > 10000 | 1070
11 | Cn1cc(/C=C2\Oc3cc(O)cc(O)c3C2=O)c2c(-c3ccc([N+](=O)[O-])cc3)cccc21 [Example 420, (2Z)-4,6-Dihydroxy-2-{[1-methyl-4-(4-nitrophenyl)-1H-indol-3-yl]methylene}-1-benzofuran-3(2H)-one] | 31.5 | > 10000 | 708
